Source: ChEMBL document CHEMBL1201862, “PubChem BioAssay data set” (2004)
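Protocol summary: plate cells (96-well), add compound at 5 concentrations, incubate 48 h, interpolate endpoints linearly. GI50: concentration for 50% inhibition of growth.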 Activity calls are given as the source filed them. No stated cut-off is given here; in the data, active = GI50 up to about 1.1 µM and inactive = higher.

How the values were obtained:
Assay in all cases: NCI tumour cell line growth inhibition, 48 h
A498 = test system: A498
HCT-116 = test system: HCT-116
HCC 2998 = test system: HCC 2998
SF-268 = test system: SF-268
HOP-62 = test system: HOP-62
UACC-257 = test system: UACC-257
TK-10 = test system: TK-10
SR = test system: SR
SK-MEL-5 = test system: SK-MEL-5
OVCAR-5 = test system: OVCAR-5
SK-MEL-2 = test system: SK-MEL-2
PC-3 = test system: PC-3
Hs-578T = test system: Hs-578T
A549 = test system: A549
SK-OV-3 = test system: SK-OV-3
CCRF-CEM = test system: CCRF-CEM
SW-620 = test system: SW-620
UO-31 = test system: UO-31
EKVX = test system: EKVX
U-251 = test system: U-251

Compound | GI50 (A498) | GI50 (HCT-116) | GI50 (HCC 2998) | GI50 (SF-268) | GI50 (HOP-62) | GI50 (UACC-257) | GI50 (TK-10) | GI50 (SR) | GI50 (SK-MEL-5) | GI50 (OVCAR-5) | GI50 (SK-MEL-2) | GI50 (PC-3) | GI50 (Hs-578T) | GI50 (A549) | GI50 (SK-OV-3) | GI50 (CCRF-CEM) | GI50 (SW-620) | GI50 (UO-31) | GI50 (EKVX) | GI50 (U-251)
CC(=O)NC1=CC(=O)c2cc(C)cc(O)c2C1=O | 11 µM (inactive) | 5.51 µM (inactive) | 2.03 µM (inactive) | 9.33 µM (inactive) | 17.9 µM (inactive) | 1.85 µM (inactive) | 21 µM (inactive) | 9.1 µM (inactive) | 1.14 µM (inactive) | 12.5 µM (inactive) | 4.72 µM (inactive) | 12.5 µM (inactive) | 31.8 µM (inactive) | 7.5 µM (inactive) | > 63.2 µM (inactive) | 4.47 µM (inactive) | 3.41 µM (inactive) | 7.59 µM (inactive) | 17.2 µM (inactive) | 9.33 µM (inactive)
CC(=O)O[C@H]1C(=O)[C@@]2(C)[C@H]([C@H](OC(=O)c3ccccc3)[C@]3(O)C[C@H](OC(=O)[C@H](OC(=O)OCCC(O)CO)[C@@H](NC(=O)c4ccccc4)c4ccccc4)C(C)=C1C3(C)C)[C@]1(OC(C)=O)CO[C@@H]1C[C@@H]2O (some centres undefined) | 0.141 µM (active) | < 0.01 µM (active) | < 0.01 µM (active) | < 0.0111 µM (active) | < 0.01 µM (active) | < 0.01 µM (active) | 0.998 µM (active) | < 0.01 µM (active) | < 0.01 µM (active) | < 0.016 µM (active) | 29 µM (inactive) | < 0.0128 µM (active) | < 0.01 µM (active) | < 0.0103 µM (active) | 0.0104 µM (active) | < 0.01 µM (active) | < 0.01 µM (active) | 0.989 µM (active) | 0.037 µM (active) | < 0.01 µM (active)
CCSc1cc2c(cc1O)CC[C@@H]1[C@@H]2CC[C@]2(C)[C@@H](O)CC[C@@H]12 | 15.6 µM (inactive) | 8.57 µM (inactive) | 13.9 µM (inactive) | 29 µM (inactive) | 15.7 µM (inactive) | 15.1 µM (inactive) | 27.1 µM (inactive) | 4.88 µM (inactive) | 10.8 µM (inactive) | 23 µM (inactive) | 16.3 µM (inactive) | 5.71 µM (inactive) | 5.33 µM (inactive) | 4.3 µM (inactive) | 17.8 µM (inactive) | 10.1 µM (inactive) | 3.47 µM (inactive) | 15.4 µM (inactive) | – | 12.6 µM (inactive)
C[C@H]1[C@H](C)CC[C@]2(C(=O)OC3OC(CO)C(O)C(O)C3O)CC[C@]3(C)C(=CC[C@@H]4[C@@]5(C)C[C@H]6OC(=O)c7cc(O)c(O)c(O)c7-c7c(cc(O)c(O)c7O)C(=O)O[C@@H]6C(CO)(CO)[C@@H]5CC[C@]43C)[C@H]12 (some centres undefined) | > 100 µM (inactive) | 54.1 µM (inactive) | 82.4 µM (inactive) | > 69.8 µM (inactive) | > 100 µM (inactive) | > 100 µM (inactive) | > 100 µM (inactive) | 27 µM (inactive) | 72.9 µM (inactive) | > 95.9 µM (inactive) | > 100 µM (inactive) | > 82.6 µM (inactive) | > 100 µM (inactive) | > 100 µM (inactive) | > 95.5 µM (inactive) | 24.5 µM (inactive) | 37.6 µM (inactive) | 58.1 µM (inactive) | > 100 µM (inactive) | 17.7 µM (inactive)
C/C=C/COc1cc(NC(=S)OC(C)C)ccc1Cl.C/C=C\COc1cc(NC(=S)OC(C)C)ccc1Cl | 16.2 µM (inactive) | 17.4 µM (inactive) | 16.1 µM (inactive) | 17.7 µM (inactive) | 20 µM (inactive) | 18.7 µM (inactive) | 14.9 µM (inactive) | 16.8 µM (inactive) | 16.2 µM (inactive) | 19 µM (inactive) | 13.6 µM (inactive) | 16.3 µM (inactive) | 17.7 µM (inactive) | 15.6 µM (inactive) | 21.9 µM (inactive) | 25.3 µM (inactive) | 17.1 µM (inactive) | 12 µM (inactive) | 12.6 µM (inactive) | 16.9 µM (inactive)
C#CC1=CC(=O)C(OC)=CC1=O | > 100 µM (inactive) | 13.3 µM (inactive) | 30.1 µM (inactive) | 43.4 µM (inactive) | 16.5 µM (inactive) | 41.6 µM (inactive) | 48.6 µM (inactive) | 6.7 µM (inactive) | 16.2 µM (inactive) | 33.5 µM (inactive) | 15.7 µM (inactive) | 53.2 µM (inactive) | 95.1 µM (inactive) | 33.9 µM (inactive) | > 100 µM (inactive) | 7.36 µM (inactive) | 17.5 µM (inactive) | 4.68 µM (inactive) | 23.3 µM (inactive) | 31.9 µM (inactive)
